Experimental data: ChEMBL document CHEMBL4513161, “CO-ADD screening of MMV (CH) - Pandemic Response Box” (2021)
Converted amounts (≈) assume the structure as drawn.

Assays:
[1] = system: HEK293; experiment: cells; type: functional, Homo sapiens, ATCC CRL1573; details: Homo sapiens, ATCC CRL1573, HEK293; ASSAY_TEST Inhibition of Cell Viability; detection method Resazurin; Fluorescence (ex560/em590); MEDIA DMEM with 10% FBS; plate type 384well; TC; CORNING #3712; time 18 hr; read-out: CC50
[2] = system: Pseudomonas aeruginosa; experiment: Antibacterial activity against Pseudomonas aeruginosa PAO397 [PAO1 d(mexAB-oprM) d(mexCD-oprJ) d(mexEF-oprN) d(mexJKL) d(mexXY) d(opmH)] (CO-ADD:GN_211); MIC in CAMBH media using NBS plates, by OD(600); type: functional; details: ASSAY_TEST Inhibition of Bacterial Growth, detection method Absorption (OD600), MEDIA CAMHB, plate type 384well, CORNING #3640, time 18 hr
[3] = system: Cryptococcus neoformans
Description: Antifungal activity against Cryptococcus neoformans H99 ATCC 208821 (CO-ADD:FG_002); MIC in YNB media using NBS plates, by Resazurin OD(600-570)

[4] = system: Staphylococcus aureus; experiment: microbe, parasite or virus in culture; details: ATCC 43300, 18 h, ASSAY_TEST Inhibition of Bacterial Growth, detection method Absorption (OD600), MEDIA CAMHB, plate type 384well, NBS, CORNING #3640
Description: Antibacterial activity against Staphylococcus aureus MRSA ATCC 43300 (CO-ADD:GP_020); MIC in CAMBH media, using NBS plates, by OD(600)

[5] = system: Escherichia coli; experiment: microbe, parasite or virus in culture; details: ATCC 25922, 18 h, ASSAY_TEST Inhibition of Bacterial Growth, detection method Absorption (OD600), MEDIA CAMHB, plate type 384well, NBS, CORNING #3640
Description: Antibacterial activity against Escherichia coli ATCC 25922 (CO-ADD:GN_001); MIC in CAMBH media using NBS plates, by OD(600)

[6] = system: Klebsiella pneumoniae; experiment: microbe, parasite or virus in culture; details: ATCC 700603, 18 h, ASSAY_TEST Inhibition of Bacterial Growth, detection method Absorption (OD600), MEDIA CAMHB, plate type 384well, NBS, CORNING #3640
Description: Antibacterial activity against Klebsiella pneumoniae MDR ATCC 70063 (CO-ADD:GN_003); MIC in CAMBH media using NBS plates, by OD(600)

[7] = system: Pseudomonas aeruginosa; experiment: microbe, parasite or virus in culture; details: ATCC 27853, 18 h, ASSAY_TEST Inhibition of Bacterial Growth, detection method Absorption (OD600), MEDIA CAMHB, plate type 384well, NBS, CORNING #3640
Description: Antibacterial activity against Pseudomonas aeruginosa ATCC 27853 (CO-ADD:GN_042); MIC in CAMBH media using NBS plates, by OD(600)

[8] = system: Acinetobacter baumannii; experiment: microbe, parasite or virus in culture; details: ATCC 19606, 18 h, ASSAY_TEST Inhibition of Bacterial Growth, detection method Absorption (OD600), MEDIA CAMHB, plate type 384well, NBS, CORNING #3640
Description: Antibacterial activity against Acinetobacter baumannii ATCC 19606 (CO-ADD:GN_034); MIC in CAMBH media using NBS plates, by OD600

[9] = system: Candida albicans; experiment: microbe, parasite or virus in culture; details: ATCC 90028, ASSAY_TEST Inhibition of Fungal Growth, detection method Absorption (OD530), plate type 384well, NBS, CORNING #3640
Description: Antifungal activity against Candida albicans ATCC 90028 (CO-ADD:FG_001); MIC in YNB media using NBS plates, by OD630

Structure (SMILES) | CC50 [1] | MIC [2] | MIC [3] | MIC [4] | MIC [5] | MIC [6] | MIC [7] | MIC [8] | MIC [9]
CCc1nc(N)nc(N)c1C#CC(C)c1cc(OC)cc(-c2ccncc2)c1 (configuration not stated) | 6.39 µM | > 20 µM | > 20 µM | 2.5 µM (≈ 0.934 µg/mL) | > 20 µM | > 20 µM | > 20 µM | > 20 µM | > 20 µM
NS(=O)(=O)c1ccc(NC(=O)NC(c2ccccc2)c2ccccc2)cc1 | > 20 µM | > 20 µM | > 20 µM | > 20 µM | > 20 µM | > 20 µM | > 20 µM | > 20 µM | > 20 µM
CCCCc1ccc(C(=O)O)nc1 [FUSARIC ACID] | > 20 µM | > 20 µM | > 20 µM | > 20 µM | > 20 µM | > 20 µM | > 20 µM | > 20 µM | > 20 µM
CNc1nc(=O)[nH]cc1F | > 20 µM | > 20 µM | > 20 µM | > 20 µM | > 20 µM | > 20 µM | > 20 µM | > 20 µM | > 20 µM
O=C(NC(=O)N1CCCc2ccccc21)c1cccc(Cl)c1 | > 20 µM | > 20 µM | > 20 µM | > 20 µM | > 20 µM | > 20 µM | > 20 µM | > 20 µM | > 20 µM
CC(C)(C)c1cccc(-c2nc3cc(C(=N)N)ccc3[nH]2)c1O | > 20 µM | > 20 µM | > 20 µM | 10 µM (≈ 3.08 µg/mL) | > 20 µM | > 20 µM | > 20 µM | > 20 µM | > 20 µM
NC(=O)c1cnc2ccc(S(=O)(=O)c3ccccc3)cc2c1Nc1ccc(O)cc1 | > 20 µM | > 20 µM | > 20 µM | > 20 µM | > 20 µM | > 20 µM | > 20 µM | > 20 µM | > 20 µM
O=C(CCCC(F)(F)F)N1CCC(c2nc(-c3nccs3)no2)CC1 | > 20 µM | > 20 µM | > 20 µM | > 20 µM | > 20 µM | > 20 µM | > 20 µM | > 20 µM | > 20 µM
C=CCN(C(=O)OCc1ccc([N+](=O)[O-])cc1)C1CCN(CC[C@](C)(CN(C)S(=O)(=O)c2ccccc2)c2ccccc2)CC1 | > 20 µM | > 20 µM | > 20 µM | > 20 µM | > 20 µM | > 20 µM | > 20 µM | > 20 µM | > 20 µM
FC(F)(F)Oc1ccc(Nc2ccc3cccc(Cl)c3n2)cc1 [OBEFAZIMOD] | > 20 µM | > 20 µM | > 20 µM | > 20 µM | > 20 µM | > 20 µM | > 20 µM | > 20 µM | > 20 µM
OCCCCn1cnc2c(O)nc(NCc3ccc(Cl)c(Cl)c3)nc21 | > 20 µM | > 20 µM | > 20 µM | > 20 µM | > 20 µM | > 20 µM | > 20 µM | > 20 µM | > 20 µM
O=c1cc(Nc2ccc3ccccc3c2)[nH]c(=O)[nH]1 | > 20 µM | > 20 µM | > 20 µM | > 20 µM | > 20 µM | > 20 µM | > 20 µM | > 20 µM | > 20 µM
CC(C)=CCC/C(C)=C/CNCCNC1C2CC3CC(C2)CC1C3 (configuration not stated) [SQ109] | 19.5 µM | 20 µM (≈ 6.61 µg/mL) | > 20 µM | > 20 µM | > 20 µM | > 20 µM | > 20 µM | > 20 µM | > 20 µM
C[C@H](c1cccc2ccccc12)N(C)Cc1ccccc1 | > 20 µM | > 20 µM | > 20 µM | > 20 µM | > 20 µM | > 20 µM | > 20 µM | > 20 µM | > 20 µM
CCOc1ccc(/C=N/NC(=O)C2CC2c2ccc(C(C)(C)C)cc2)cc1OCC (configuration not stated) | > 20 µM | > 20 µM | > 20 µM | > 20 µM | > 20 µM | > 20 µM | > 20 µM | > 20 µM | > 20 µM
CO/N=C(\C(=O)N[C@@H]1C(=O)N2C(C(=O)OCOC(=O)C(C)(C)C)=C(/C=C\c3scnc3C)CS[C@H]12)c1csc(N)n1 [CEFDITOREN PIVOXIL] | > 20 µM | > 20 µM | > 20 µM | > 20 µM | > 20 µM | > 20 µM | > 20 µM | > 20 µM | > 20 µM
Cc1nc(N(C)C(=O)Cc2ccc(-c3ccccn3)cc2)sc1S(N)(=O)=O | > 20 µM | > 20 µM | > 20 µM | > 20 µM | > 20 µM | > 20 µM | > 20 µM | > 20 µM | > 20 µM
O=C(NC12CC3CC(CC(C3)C1)C2)c1cc2ccccc2[nH]1 | > 20 µM | > 20 µM | > 20 µM | > 20 µM | > 20 µM | > 20 µM | > 20 µM | > 20 µM | > 20 µM
O=C(NO)C1(CS(=O)(=O)c2ccc(Oc3ccc(Cl)cc3)cc2)CCOCC1 [CTS-1027] | > 20 µM | 20 µM (≈ 8.52 µg/mL) | > 20 µM | > 20 µM | > 20 µM | > 20 µM | > 20 µM | > 20 µM | > 20 µM
CC(Cc1ccccc1)C(=O)Nc1ccc(Cl)cc1C(=O)O (configuration not stated) | > 20 µM | > 20 µM | > 20 µM | > 20 µM | > 20 µM | > 20 µM | > 20 µM | > 20 µM | > 20 µM
O=C(O)c1sccc1S(=O)(=O)n1ccc2cc(Br)ccc21 | > 20 µM | > 20 µM | > 20 µM | > 20 µM | > 20 µM | > 20 µM | > 20 µM | > 20 µM | > 20 µM
C[C@@H](NC(=O)c1cccc(-c2cnc(-c3cc4ccccc4cn3)[nH]2)c1)c1ccc(F)cc1 | 10.8 µM | > 20 µM | > 20 µM | > 20 µM | > 20 µM | > 20 µM | > 20 µM | > 20 µM | > 20 µM
O=C(O)CCNC(=O)c1ccccc1 [BETAMIPRON] | > 20 µM | > 20 µM | > 20 µM | > 20 µM | > 20 µM | > 20 µM | > 20 µM | > 20 µM | > 20 µM
Cc1ncc([N+](=O)[O-])n1CC(O)CN1CCOCC1 (configuration not stated) [MORINIDAZOLE] | > 20 µM | > 20 µM | > 20 µM | > 20 µM | > 20 µM | > 20 µM | > 20 µM | > 20 µM | > 20 µM
O=c1nc(N2CCN(CC3CCCCC3)CC2)sc2c([N+](=O)[O-])cc(C(F)(F)F)cc12 [MACOZINONE] | > 20 µM | > 20 µM | > 20 µM | > 20 µM | > 20 µM | > 20 µM | > 20 µM | > 20 µM | > 20 µM
COc1nc2ccc(Br)cc2cc1[C@@H](c1ccccc1)[C@@](O)(CCN(C)C)c1cccc2ccccc12 [BEDAQUILINE] | > 20 µM | > 20 µM | > 20 µM | > 20 µM | > 20 µM | > 20 µM | > 20 µM | > 20 µM | > 20 µM
O=C(O)/C=C/C=C/c1cccc(Oc2cc(Cl)cc(Cl)c2)c1 | > 20 µM | > 20 µM | > 20 µM | > 20 µM | > 20 µM | > 20 µM | > 20 µM | > 20 µM | > 20 µM
[N-]=[N+]=N[C@H]1C[C@H](n2ccc(=O)[nH]c2=O)O[C@@H]1CO [NAVURIDINE] | > 20 µM | > 20 µM | > 20 µM | > 20 µM | > 20 µM | > 20 µM | > 20 µM | > 20 µM | > 20 µM
